Laboratory results published in patent US10961215B2, “N-aryl and N-heteroaryl piperidine derivatives as liver X receptor beta agonists, compositions, and their use” (Merck Sharp & Dohme Corp., priority 2016, dated 2021).

How the values were obtained:
[1] = biological target: T1, GST tagged LXRbeta LBD (ligand binding domain) (Homo sapiens, UniProt P55055); assay: LanthaScreen TR-FRET Liver X Receptor Coactivator Assay, LXR beta-LBD (co-activator recruitment; IP and % Emax relative to T0901317); format: biochemical; details: for EC50: Inflection Point of co-activator recruitment, LXR beta-LBD, TR-FRET; for Emax: read-out: LXR beta actiivty at max dose (%)
T1 construct: purchased Invitrogen pv4658.pps
T1 sequence (P55055 222-460 limits assumed): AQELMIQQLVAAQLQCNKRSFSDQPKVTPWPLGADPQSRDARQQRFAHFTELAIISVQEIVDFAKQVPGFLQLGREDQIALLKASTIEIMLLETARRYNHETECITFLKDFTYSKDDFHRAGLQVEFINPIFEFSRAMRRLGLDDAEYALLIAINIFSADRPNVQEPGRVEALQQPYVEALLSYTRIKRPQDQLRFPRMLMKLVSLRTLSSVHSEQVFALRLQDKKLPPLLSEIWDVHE
In short: (§1)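 Potency as inflection point and efficacy as Emax come from compound-driven coactivator peptide recruitment, scaled to T0901317, using a terbium/fluorescein TR-FRET format after room-temperature incubation.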

[2] = biological target: T2, GST tagged LXRalpha LBD (ligand binding domain) (Homo sapiens, UniProt Q13133); assay: LanthaScreen TR-FRET Liver X Receptor Coactivator Assay, LXR alpha-LBD (co-activator recruitment; IP and % Emax relative to T0901317); format: biochemical; details: for LXR alpha IP (nM) / EC50: Inflection Point of co-activator recruitment, LXR alpha-LBD, TR-FRET; for Emax: read-out: LXR alpha actiivty at max dose (%)
T2 construct: purchased Invitrogen pv4655
T2 sequence (Q13133 209-447 limits assumed): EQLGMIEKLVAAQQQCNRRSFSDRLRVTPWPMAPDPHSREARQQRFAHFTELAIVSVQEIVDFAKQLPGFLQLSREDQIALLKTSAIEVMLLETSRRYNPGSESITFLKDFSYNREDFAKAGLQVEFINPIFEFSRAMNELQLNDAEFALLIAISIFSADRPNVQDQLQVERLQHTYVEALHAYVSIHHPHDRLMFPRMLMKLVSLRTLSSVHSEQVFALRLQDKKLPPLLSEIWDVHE
In short: as §1

[3] = efficacy at max dose in relation to reference T0901317, LXR beta-LBD
[4] = efficacy at max dose in relation to reference T0901317, LXR alpha-LBD

SMILES | EC50 [1] | Emax [1, 3] | LXR alpha IP (nM) [2] | Emax [2, 4] | EC50 [2] | LXR beta actiivty at max dose (%) [1, 3] | LXR alpha actiivty at max dose (%) [2, 4]
CN(C)C(=O)c1ccc(N2CCC(CCCN(C)C(=O)[C@](O)(c3cc(Cl)cc(Cl)c3)C(F)(F)F)CC2)nc1Cl [Example 1-37, (R)-2-chloro-6-(4-(3-(2-(3,5-dichlorophenyl)-3,3,3-trifluoro-2-hydroxy-N-methylpropanamido)propyl)piperidin-1-yl)-N,N-dimethylnicotinamide] | 35 nM | 44% | No IP | 0% | – | – | –
COc1cccc([C@@](O)(C(=O)N(C)CCC2CC3(CCN(c4ccc(C(=O)NC5CC5)c(Cl)n4)CC3)C2)C(F)(F)F)c1 [Example 13-3, 2-chloro-N-cyclopropyl-6-(2-(2-((R)-3,3,3-trifluoro-2-hydroxy-2-(3-methoxyphenyl)-N-methylpropanamido)ethyl)-7-azaspiro[3.5]nonan-7-yl)nicotinamide] | 654 nM | 35% | No IP | 1% | – | – | –
CN(C)C(=O)c1ccc(N2CCC([C@@H]3C[C@H]3CN(C)C(=O)[C@@](O)(c3ccccc3)C(F)(F)F)CC2)cc1Cl [Example 15-20, 2-chloro-N,N-dimethyl-4-(4-((1S,2R)-2-(((S)-3,3,3-trifluoro-2-hydroxy-N-methyl-2-phenylpropanamido)methyl)cyclopropyl)piperidin-1-yl)benzamide] | 403 nM | 65% | No IP | 12% | – | – | –
CN(C)C(=O)c1ccc(N2CCC(CCCNC(=O)C(C)(C)c3ccccc3)CC2)cc1Cl [Example 5-4, 2-chloro-N,N-dimethyl-4-(4-(3-(2-methyl-2-phenylpropanamido)propyl)piperidin-1-yl)benzamide] | 561 nM | 72% | No IP | 16% | – | – | –
COc1ccccc1[C@@]1(C(=O)N(C)CCCC2CCN(c3ccc(C(=O)N(C)C)c(Cl)n3)CC2)CCCO1 [Example 1-60, (R)-2-chloro-6-(4-(3-(2-(2-methoxyphenyl)-N-methyltetrahydrofuran-2-carboxamido)propyl)piperidin-1-yl)-N,N-dimethylnicotinamide] | 60 nM | 93% | – | 33% | 1450 nM | – | –
CN(C)C(=O)c1ccc(N2CCC(CCCN(C)C(=O)[C@@]3(c4ccccc4)CCCO3)CC2)nc1Cl [Example 1-38, (S)-2-chloro-N,N-dimethyl-6-(4-(3-(N-methyl-2-phenyltetrahydrofuran-2-carboxamido)propyl)piperidin-1-yl)nicotinamide] | 156 nM | 78% | – | 18% | 1920 nM | – | –
CN(C)C(=O)c1ccc(N2CCC(CC3CC(NC(=O)[C@](O)(c4ccccc4)C(F)(F)F)C3)CC2)cc1Cl (stereo partly drawn) [Example 11-4, (R)-2-chloro-N,N-dimethyl-4-(4-((3-(3,3,3-trifluoro-2-hydroxy-2-phenylpropanamido)cyclobutyl)methyl)piperidin-1-yl)benzamide] | 270 nM | 85% | No IP | 14% | – | – | –
COc1cccc([C@@](O)(C(=O)N(C)CCCC2CCN(c3ncc(C(=O)N(C)C)cc3Cl)CC2)C(F)(F)F)c1 [Example 2-22, (R)-5-chloro-N,N-dimethyl-6-(4-(3-(3,3,3-trifluoro-2-hydroxy-2-(3-methoxyphenyl)-N-methylpropanamido)propyl)piperidin-1-yl)nicotinamide] | 1120 nM | 32% | No IP | 2% | – | – | –
CC(C)[C@]1(C(=O)N(C)CCCC2CCN(c3ccc(C(=O)N(C)C)c(Cl)n3)CC2)CCCO1 [Example 1-19, (S)-2-chloro-6-(4-(3-(2-isopropyl-N-methyl-tetrahydrofuran-2-carboxamido)propyl)piperidin-1-yl)-N,N-dimethylnicotinamide] | 1040 nM | 41% | – | 38% | 17400 nM | – | –
CN(C)C(=O)c1ccc(N2CCC(CCCN(C)C(=O)[C@@](N)(c3ccccc3)C(F)(F)F)CC2)nc1Cl [Example 1-30, (S)-6-(4-(3-(2-amino-3,3,3-trifluoro-N-methyl-2-phenylpropanamido)propyl)piperidin-1-yl)-2-chloro-N,N-dimethylnicotinamide] | 237 nM | 47% | No IP | 1% | – | – | –
COc1cccc([C@](O)(C(=O)N(C)CCCC2CCN(c3ccc(C(=O)N(C)C)c(Cl)n3)CC2)C(F)F)c1 [Example 1-13, (S)-2-chloro-6-(4-(3-(3,3-difluoro-2-hydroxy-2-(3-methoxyphenyl)-N-methylpropanamido)propyl)piperidin-1-yl)-N,N-dimethylnicotinamide] | 148 nM | 63% | No IP | 0% | – | – | –
COc1cccc([C@@](O)(C(=O)N(C)CCC2CC23CCN(c2ccc(C(=O)NC(C)C)c(Cl)n2)CC3)C(F)(F)F)c1 (stereo in doubt) [Example 7-19, 2-chloro-N-isopropyl-6-((R)-1-(2-((R)-3,3,3-trifluoro-2-hydroxy-2-(3-methoxyphenyl)-N-methylpropanamido)ethyl)-6-azaspiro[2.5]octan-6-yl)nicotinamide] | 76 nM | 58% | – | 27% | 688 nM | – | –
COc1cccc([C@@](O)(C(=O)N(C)CC[C@H]2CC23CCN(c2ccc(C(=O)NC4CC4)c(Cl)n2)CC3)C(F)(F)F)c1 [Example 7-16, 2-chloro-N-cyclopropyl-6-((R)-1-(2-((R)-3,3,3-trifluoro-2-hydroxy-2-(3-methoxyphenyl)-N-methylpropanamido)ethyl)-6-azaspiro[2.5]octan-6-yl)nicotinamide] | 101 nM | 54% | – | 40% | 1790 nM | – | –
CN(C)C(=O)c1ccc(N2CCC([C@@H]3C[C@H]3CNC(=O)[C@@](O)(c3ccccc3)C(F)(F)F)CC2)cc1Cl [Example 15-18, 2-chloro-N,N-dimethyl-4-(4-((1S,2R)-2-(((S)-3,3,3-trifluoro-2-hydroxy-2-phenylpropanamido)methyl)cyclopropyl)piperidin-1-yl)benzamide] | 763 nM | – | No IP | – | – | 66% | 8%
CN(C)C(=O)c1ccc(N2CCC(C)(CCCN(C)C(=O)[C@@]3(c4ccccc4)CCCO3)CC2)nc1Cl [Example 9-4, (S)-2-chloro-N,N-dimethyl-6-(4-methyl-4-(3-(N-methyl-2-phenyltetrahydrofuran-2-carboxamido)propyl)piperidin-1-yl)nicotinamide] | 63 nM | 67% | No IP | 14% | – | – | –
COc1cccc([C@@](O)(C(=O)N(C)CCCC2CCN(c3ccc(C(N)=O)c(Cl)n3)CC2)C(F)(F)F)c1 [Example 2-16, (R)-2-chloro-6-(4-(3-(3,3,3-trifluoro-2-hydroxy-2-(3-methoxyphenyl)-N-methylpropanamido)propyl)piperidin-1-yl)nicotinamide] | 296 nM | 54% | No IP | 12% | – | – | –
COc1cccc([C@@](O)(C(=O)N(C)CCCC2CCN(c3ccc(C(=O)N4C(C)CCC4C)c(Cl)n3)CC2)C(F)(F)F)c1 (stereo partly drawn) [Example 2-10, (2R)-N-(3-(1-(6-chloro-5-(2,5-dimethylpyrrolidine-1-carbonyl)pyridin-2-yl)piperidin-4-yl)propyl)-3,3,3-trifluoro-2-hydroxy-2-(3-methoxyphenyl)-N-methylpropanamide] | 134 nM | 43% | No IP | 0% | – | – | –
CC(C)N(C)C(=O)c1ccc(N2CCC3(CC2)C[C@@H]3CCN(C)C(=O)[C@](O)(c2ccccc2)C(F)(F)F)cc1Cl [Example 7-13, 2-chloro-N-isopropyl-N-methyl-4-((R)-1-(2-((R)-3,3,3-trifluoro-2-hydroxy-N-methyl-2-phenylpropanamido)ethyl)-6-azaspiro[2.5]octan-6-yl)benzamide] | 14 nM | 55% | – | 32% | 158 nM | – | –
CNC(=O)c1ccc(N2CCC3(CC2)C[C@@H]3CCN(C)C(=O)[C@](O)(c2cccc(OC)c2)C(F)(F)F)cc1Cl [Example 7-8, 2-chloro-N-methyl-4-((R)-1-(2-((R)-3,3,3-trifluoro-2-hydroxy-2-(3-methoxyphenyl)-N-methylpropanamido)ethyl)-6-azaspiro[2.5]octan-6-yl)benzamide] | 82 nM | 56% | – | 33% | 1270 nM | – | –
